Values quoted from earlier work in patent US9636338B2, “Phenyl-dihydropyridine derivatives as inhibitors of aldosterone synthase” (Hoffmann-La Roche Inc., priority 2013, dated 2017).

Target: CYP11B2 (Homo sapiens (Human), UniProt P19099)
Settings: patients with primary aldosteronism; oral; cited from earlier work

Sequence of CYP11B2 (P19099 25-503): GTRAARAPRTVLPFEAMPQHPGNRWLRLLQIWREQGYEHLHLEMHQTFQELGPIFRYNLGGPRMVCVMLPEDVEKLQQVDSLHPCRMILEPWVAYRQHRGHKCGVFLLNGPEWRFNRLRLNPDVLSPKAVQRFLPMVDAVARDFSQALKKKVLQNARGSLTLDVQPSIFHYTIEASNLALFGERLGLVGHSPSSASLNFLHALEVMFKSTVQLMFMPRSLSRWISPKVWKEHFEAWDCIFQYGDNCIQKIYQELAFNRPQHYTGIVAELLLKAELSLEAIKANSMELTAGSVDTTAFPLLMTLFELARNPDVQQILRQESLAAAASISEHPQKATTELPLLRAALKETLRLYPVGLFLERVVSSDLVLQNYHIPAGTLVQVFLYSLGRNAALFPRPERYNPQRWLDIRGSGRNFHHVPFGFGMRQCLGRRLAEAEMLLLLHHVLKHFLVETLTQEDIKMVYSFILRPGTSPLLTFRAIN

For `N#Cc1ccc([C@H]2CCc3cncn32)c(F)c1` [LCI699], the blood pressure is given as “mildly decreased”, the circulating aldosterone levels is given as “significantly lower” and the hypokalemia is given as “corrected”.
